According to ChEMBL document CHEMBL5584313, “Design and Synthesis of 7-Oxabicyclo[2.2.1]heptane-2,3-dicarboxylic Acid Derivatives as PP5 Inhibitors To Reverse Temozolomide Resistance in Glioblastoma Multiforme” (J Med Chem, 2024):
Calls of active or inactive are those of the source. The rule behind the calls is not given here.

Tests used:
[1] = Inhibition of PP2A (unknown origin)
U-87 MG [2] = assay: Induction of apoptosis in human U-87 MG cells assessed as S phase cells at 25 uM incubated for 24 hrs by propidium iodide staining based flow cytometry analysis (reference value: 29.4%); format: functional, U-87MG ATCC
U-87 MG [3] = assay: Induction of apoptosis in human U-87 MG cells assessed as G2/M phase cells at 25 uM incubated for 24 hrs in presence of TMZ by propidium iodide staining based flow cytometry analysis (reference value: 11.9%); format: functional, U-87MG ATCC
U-87 MG [4] = assay: Cytotoxicity against human U-87 MG cells incubated for 48 hrs by CCK8 assay; format: functional, cell-based, U-87MG ATCC
U-87 MG [5] = assay: Induction of apoptosis in human U-87 MG cells assessed as G0/G1 phase cells at 25 uM incubated for 24 hrs in presence of TMZ by propidium iodide staining based flow cytometry analysis (reference value: 58.8%); format: functional, U-87MG ATCC
U-87 MG [6] = assay: Antitumor activity against human U-87 MG cells xenografted in BALB/c nude mouse assessed as tumor growth retardation at 40 mg/kg, po administered every other day for 18 days; format: functional, organism-based; conditions: U-87MG ATCC, time 18.0 day
U-87 MG [7] = assay: Induction of apoptosis in human U-87 MG cells assessed as G2/M phase cells at 25 uM incubated for 24 hrs by propidium iodide staining based flow cytometry analysis (reference value: 11.9%); format: functional, U-87MG ATCC
U-87 MG [8] = assay: Induction of apoptosis in human U-87 MG cells assessed as G0/G1 phase cells at 25 uM incubated for 24 hrs by propidium iodide staining based flow cytometry analysis (reference value: 58.8%); format: functional, U-87MG ATCC
U-87 MG [9] = assay: Induction of apoptosis in human U-87 MG cells assessed as S phase cells at 25 uM incubated for 24 hrs in presence of TMZ by propidium iodide staining based flow cytometry analysis (reference value: 29.4%); format: functional, U-87MG ATCC
[10] = Aqueous stability of compound assessed as compound remaining measured at 240 mins by HPLC assay; format: physicochemical; conditions: aqueous solution, read-out: Stability
[11] = Aqueous stability of compound assessed as compound remaining measured at 480 mins by HPLC assay; format: physicochemical; conditions: aqueous solution, read-out: Stability
[12] = Stability in mouse plasma assessed as half life measured upto 300 mins by LC-MS/MS analysis; format: ADME, cell-free
[13] = Cytotoxicity against human BEAS-2B incubated for 48 hrs by CCK8 assay; format: toxicity, cell-based; conditions: BEAS-2B cells
Homo sapiens [14] = organism: Homo sapiens; assay: Selectivity ratio of IC50 for PP1 (unknown origin ) to IC50 for PP5 (unknown origin)
U-87 MG [15] = assay: Antitumor activity against human U-87 MG cells xenografted in BALB/c nude mouse assessed as tumor growth inhibition at 3 mg/kg, po administered every other day for 18 days in presence of 40 mg/kg TMZ; format: functional, U-87MG ATCC; conditions: 432 h, time 18 day, read-out: TGI
[16] = target: T1, Serine/threonine-protein phosphatase 5 (Homo sapiens, UniProt P53041); assay: Inhibition of human PPP5C (169 to 499 residues) expressed in Escherichia coli using [32P]-phosphohistone as substrate preincubated for 10 mins followed by substrate addition
T1 sequence (P53041 whole entry): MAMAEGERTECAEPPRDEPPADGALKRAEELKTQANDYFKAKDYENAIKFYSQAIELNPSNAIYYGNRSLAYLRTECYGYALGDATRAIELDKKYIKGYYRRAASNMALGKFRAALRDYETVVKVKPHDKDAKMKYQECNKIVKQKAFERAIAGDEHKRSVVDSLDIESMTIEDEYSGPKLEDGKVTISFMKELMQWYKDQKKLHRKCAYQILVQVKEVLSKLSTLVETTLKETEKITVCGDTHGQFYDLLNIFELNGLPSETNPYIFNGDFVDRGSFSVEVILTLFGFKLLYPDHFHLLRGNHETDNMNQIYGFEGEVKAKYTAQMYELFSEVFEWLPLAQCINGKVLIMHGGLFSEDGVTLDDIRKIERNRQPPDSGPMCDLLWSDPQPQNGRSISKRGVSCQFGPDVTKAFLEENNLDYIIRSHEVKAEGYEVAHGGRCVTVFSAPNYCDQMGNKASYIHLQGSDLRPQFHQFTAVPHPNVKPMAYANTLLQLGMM

[17] = Aqueous stability of compound assessed as compound remaining measured at 30 mins by HPLC assay; format: physicochemical; conditions: aqueous solution, read-out: Stability
U-87 MG [18] = assay: Induction of apoptosis in human U-87 MG cells assessed as G0/G1 phase cells at 5 uM incubated for 24 hrs by propidium iodide staining based flow cytometry analysis (reference value: 58.8%); format: functional, U-87MG ATCC
HCT-116 = assay: Cytotoxicity against human HCT-116 cells incubated for 48 hrs by CCK8 assay; format: functional, cell-based; conditions: HCT-116, 48 h
U-87 MG [19] = assay: Induction of apoptosis in human U-87 MG cells assessed as S phase cells at 5 uM incubated for 24 hrs by propidium iodide staining based flow cytometry analysis (reference value: 29.4%); format: functional, U-87MG ATCC
[20] = Toxicity in BALB/c nude mouse xenografted with U-87 MG cells assessed as liver damage at 3 mg/kg, po administered every other day for 18 days in presence of 40 mg/kg TMZ by H and E staining based assay; format: organism-based; conditions: in vivo, 432 h, time 18 day
[21] = Stability of compound in water assessed as remaining compound after 24 hrs; format: physicochemical; conditions: read-out: Stability
[22] = Inhibition of PP2A in human U-87 MG cell lysate using RRA(pT)VA as substrate; format: subcellular
[23] = Cytotoxicity against HUVECs incubated for 48 hrs by CCK8 assay; format: toxicity, cell-based; conditions: human, HUVEC cells
U-87 MG [24] = assay: Antitumor activity against human U-87 MG cells xenografted in BALB/c nude mouse assessed as reduction in MGMT expression at 1.5 to 3 mg/kg, po measured after 4 hrs in presence of 40 mg/kg TMZ by Western blotting analysis; format: functional, organism-based; conditions: U-87MG ATCC, dose 1.5-3 mg/kg
[25] = Toxicity in BALB/c nude mouse xenografted with U-87 MG cells assessed as kidney damage at 3 mg/kg, po administered every other day for 18 days by H and E staining based assay; format: organism-based; conditions: in vivo, 432 h, time 18 day
Homo sapiens [26] = organism: Homo sapiens; assay: Selectivity ratio of IC50 for PP2A (unknown origin ) to IC50 for PP5 (unknown origin)
[27] = Toxicity in BALB/c nude mouse xenografted with U-87 MG cells assessed as kidney damage at 3 mg/kg, po administered every other day for 18 days in presence of 40 mg/kg TMZ by H and E staining based assay; format: organism-based; conditions: in vivo, 432 h, time 18 day
[28] = Inhibition of bovine PP2A using [32P]-phosphohistone as substrate preincubated for 10 mins followed by substrate addition; set-up: species or system Bos taurus
[29] = Toxicity in BALB/c nude mouse xenografted with U-87 MG cells assessed as liver damage at 3 mg/kg, po administered every other day for 18 days by H and E staining based assay; format: organism-based; conditions: in vivo, 432 h, time 18 day
A549 = assay: Cytotoxicity against human A549 cells incubated for 48 hrs by CCK8 assay; format: functional, cell-based; conditions: A549, 48 h
[30] = Aqueous stability of compound assessed as compound remaining measured at 10 mins by HPLC assay; format: physicochemical; conditions: aqueous solution, read-out: Stability
U-87MG ATCC [31] = assay: Downregulation of cyclin D1 expression in human U-87 MG cells at 25 uM incubated for 24 hrs in presence TMZ by Western blotting analysis; format: functional, cell-based
[32] = Aqueous stability of compound assessed as compound remaining measured at 60 mins by HPLC assay; format: physicochemical; conditions: aqueous solution, read-out: Stability
[33] = Aqueous stability of compound assessed as compound remaining measured at 120 mins by HPLC assay; format: physicochemical; conditions: aqueous solution, read-out: Stability
[34] = Cytotoxicity against HEK293T cells incubated for 48 hrs by CCK8 assay; format: toxicity, cell-based, HEK-293T; conditions: human
U-87 MG [35] = assay: Induction of apoptosis in human U-87 MG cells assessed as G2/M phase cells at 5 uM incubated for 24 hrs by propidium iodide staining based flow cytometry analysis (reference value: 11.9%); format: functional, U-87MG ATCC
U-87MG ATCC [36] = assay: Upregulation of p53 expression in human U-87 MG cells at 6.25 to 100 uM after 24 hrs by Western blotting analysis; format: functional, cell-based; conditions: dose 6.25-100 µM

O=C1OC(=O)C2C3CCC(O3)C12 (centres undefined)
IC50 [1]: 3 µM

Cn1nnc2c(C(N)=O)ncn2c1=O [TEMOZOLOMIDE]
Activity (U-87 MG [2]): 31.5%
Activity (U-87 MG [3]): 7.4%
IC50 (U-87 MG [4]): > 200 µM
Activity (U-87 MG [5]): 37.7%
Activity (U-87 MG [6]): Active
Activity (U-87 MG [7]): 13.5%
Activity (U-87 MG [8]): 54.5%
Activity (U-87 MG [9]): 69.6%

O=C(NC1CCCC1)[C@@H]1[C@H](C(=O)O)[C@H]2CC[C@@H]1O2
remaining at 4 h [10]: 10.2%

O=C(O)[C@H]1[C@@H](C(=O)N2Cc3ccccc3C2)[C@@H]2CC[C@H]1O2
remaining at 4 h [10]: 46.4%

O=C(O)[C@@H]1[C@H](C(=O)N2CC=CC2)[C@H]2CC[C@@H]1O2
remaining at 4 h [10]: 35.7%

O=C(O)[C@@H]1[C@H](C(=O)N2CCC2)[C@H]2CC[C@@H]1O2
remaining at 4 h [10]: 33.8%

O=CN1CCN(C(=O)[C@@H]2[C@H](C(=O)O)[C@H]3CC[C@@H]2O3)CC1
remaining at 4 h [10]: 80.3%

CN1CCN(C(=O)[C@@H]2[C@H](C(=O)O)[C@H]3CC[C@@H]2O3)CC1
remaining at 8 h [11]: 14%
half-life [12]: 5.03 h
IC50 at 48 h [13]: 3.5 µM
Ratio IC50 (Homo sapiens [14]): 0.7
inhibition in vivo at 3 mg/kg (U-87 MG [15]): 46.2%
Activity (U-87 MG [3]): 22.9%
IC50 [16]: 3 µM
IC50 (U-87 MG [4]): 25.6 µM
Activity (U-87 MG [5]): 52.6%
remaining at 0.5 h [17]: 79%
Activity (U-87 MG [18]): 57.4%
IC50 (HCT-116): 10.1 µM
remaining at 4 h [10]: 45.6%
Activity (U-87 MG [19]): 28.4%
Activity [20]: Toxic
remaining at 24 h [21]: 5.3%
IC50 [22]: 1 µM
IC50 at 48 h [23]: 9.7 µM
Activity (U-87 MG [24]): inactive
Activity [25]: Toxic
Ratio IC50 (Homo sapiens [26]): 0.1
Activity [27]: Toxic
IC50 [28]: 0.009 µM
Activity [29]: Toxic
IC50 (A549): 8.8 µM
remaining at 10 min [30]: 93%
Activity (U-87MG ATCC [31]): inactive
remaining at 1 h [32]: 68%
remaining at 2 h [33]: 50%
Activity (U-87 MG [9]): 11.8%
IC50 at 48 h [34]: 26.6 µM
Activity (U-87 MG [35]): 14.4%
Activity (U-87MG ATCC [36]): inactive

C/C=C1/C(=O)N[C@@H](C(=O)O)[C@H](C)C(=O)N[C@@H](CCCNC(=N)N)C(=O)N[C@@H](/C=C/C(C)=C/[C@H](C)[C@H](Cc2ccccc2)OC)[C@H](C)C(=O)N[C@@H](C(=O)O)CCC(=O)N1C [NODULARIN]
IC50 [1]: 0.0003 µM

O=C(Nc1ccccc1)[C@@H]1[C@H](C(=O)O)[C@H]2CC[C@@H]1O2
remaining at 4 h [10]: 74.5%
